According to patent publication EP4588921A1, “FREE BASE CRYSTAL FORM OF POLYCYCLIC COMPOUND OF NITROGEN-CONTAINING HETEROCYCLE, AND PREPARATION METHOD THEREFOR” (Jiangsu Hansoh Pharmaceutical Group Co., Ltd., priority 2022, dated 2024):
≈ marks a conversion by molar mass, not a printed value. Like-named read-outs stand apart in the source and are kept apart here.

Experiments:
[1] = Hygroscopicity experiment; assay type: physicochemical; details: at 80%RH
Procedure: The hygroscopicity of the crystal form I and the crystal form II of compound 9 were investigated under different relative humidity to provide a basis for the storage of the compounds.
The crystal form I and the crystal form II of compound 9 were placed in saturated water vapor at different relative humidities to allow the compound to reach a dynamic equilibrium with the water vapor, and the percentage of weight gain after moisture absorption of the compound after equilibrium was calculated.

[2] = Solubility experiments in different media (thermodynamic solubility); assay type: physicochemical; details: thermodynamic from solid
Excerpt: The solubility of the free base crystal form I and the free base crystal form II in media such as pH 1.0-8.0 USP buffer, artificial simulated gastric fluid (FaSSGF), fasted-state artificial simulated intestinal fluid (FaSSIF), fed-state artificial simulated intestinal fluid (FeSSIF) and pure water was compared to provide a basis for the evaluation of drugability.

[3] = Solid stability experiment (related substances by HPLC); assay type: physicochemical
Procedure: The compound physical and chemical stability at high temperature of 60°C, high humidity of 92.5% RH and both high temperature of 50°C and high humidity of 75% RH of the free base crystal form I and the free base crystal form II were investigated to provide a basis for the storage of the compounds.
About 2 mg of the free base crystal form I and the free base crystal form II were taken respectively, and changes of related substances in the crystal forms at high temperature of 60°C, high humidity of 92.5% RH, and both high temperature of 50°C and high humidity of 75%RH for 7 days and 14 days were investigated. The changes of related substances were calculated by HPLC and the chromatographic peak area normalization method.

[4] = PK studies in animals of the free base crystal forms; assay type: in vivo; details: Sprague-Dawley (SD), rat, 30 mg/kg, 30MPK, 0.5%HPMC suspension, SD rats, plasma
Procedure: The pharmacokinetic of the free base crystal form after a single intravenous administration was studied, and the bioavailability of the free base crystal form I and the free base crystal form II after oral administration were calculated.
The free base crystal form I was suspended with 0.5% CMCC-Na aqueous solution, and the free base crystal form […] aqueous solution. After uniformity, the suspensions were administered intragastrically to rats in triplicate at a dosage of 5 mg/kg (30 mg/kg for suspension) for the free base crystal form I and a dosage of 30 mg/kg (suspension) for the free base crystal form II. The free base crystal form I was dissolved with 20% HP-β-CD aqueous solution to obtain a clear solution, and the clear solution was filtered through a filter membrane. The filtered solution was administered via injection to rats in triplicate.

[5] = Room temperature, 92.5%RH, 7 days
[6] = Room temperature, 92.5%RH, 14 days

With `CC(C)(O)c1nc(N2C[C@H]3CN(C(=O)c4c(F)cccc4-c4ncccn4)C[C@H]3C2)ncc1F` [free base crystal form II, ((3aR,6aS)-5-(5-fluoro-4-(2-hydroxyprop-2-yl)pyrimidin-2-yl)hexahydropyrrolo [3,4-c]pyrrol-2(1H)-yl)(2-fluoro-6-(pyrimidin-2-yl)phenyl)methanone] the “weight gain after moisture absorption” value [1] was “about 0.2053%”, the solubility at 2 h ([2]; FaSSCoF, 37 °C, fassgf or other biorelevant, FaSSCoF, read-out: Solubility of free base crystal form II) was 51 µg/mL (≈ 109 µM) and the solubility at 2 h ([2]; FaSSGF (artificial simulated gastric fluid), 37 °C, fassgf or other biorelevant, FaSSGF, read-out: Solubility of free base crystal form II) was 131 µg/mL (≈ 281 µM). It also gave a solubility at 2 h ([2]; FaSSIF, 37 °C, fassif, FaSSIF, read-out: Solubility of free base crystal form II) of 60 µg/mL (≈ 129 µM), a solubility at 2 h ([2]; FeSSCoF, 37 °C, fassgf or other biorelevant, FeSSCoF, read-out: Solubility of free base crystal form II) of 63 µg/mL (≈ 135 µM) and a solubility at 2 h ([2]; FeSSIF, 37 °C, fessif, FeSSIF, read-out: Solubility of free base crystal form II) of 100 µg/mL (≈ 214 µM). For the same compound, the solubility at 2 h ([2]; USP buffer pH 1.0, 37 °C, pH 1, simulated gastric fluid, pH 1.0, read-out: Solubility of free base crystal form II) was 599 µg/mL (≈ 1280 µM), the solubility at 2 h ([2]; USP buffer pH 2.0, 37 °C, pH 2, simulated gastric fluid, pH 2.0, read-out: Solubility of free base crystal form II) was 89 µg/mL (≈ 191 µM) and the solubility at 2 h ([2]; USP buffer pH 3.0, 37 °C, pH 3, aqueous buffer, pH 3.0, read-out: Solubility of free base crystal form II) was 55 µg/mL (≈ 118 µM). The solubility at 2 h ([2]; USP buffer pH 4.5, 37 °C, pH 4.5, aqueous buffer, pH 4.5, read-out: Solubility of free base crystal form II) was 53 µg/mL (≈ 114 µM), the solubility at 2 h ([2]; USP buffer pH 6.8, 37 °C, pH 6.8, aqueous buffer, pH 6.8, read-out: Solubility of free base crystal form II) was 49 µg/mL (≈ 105 µM) and the solubility at 2 h ([2]; USP buffer, 37 °C, pH 4, aqueous buffer, pH 4.0, read-out: Solubility of free base crystal form II) was 51 µg/mL (≈ 109 µM). The solubility at 2 h ([2]; USP buffer, 37 °C, pH 5, aqueous buffer, pH 5.0, read-out: Solubility of free base crystal form II) was 50 µg/mL (≈ 107 µM), the solubility at 2 h ([2]; USP buffer, 37 °C, pH 6, aqueous buffer, pH 6.0, read-out: Solubility of free base crystal form II) was 50 µg/mL (≈ 107 µM) and the solubility at 2 h ([2]; USP buffer, 37 °C, pH 7, aqueous buffer, pH 7.0, read-out: Solubility of free base crystal form II) was 47 µg/mL (≈ 101 µM). The solubility at 2 h ([2]; USP buffer, 37 °C, pH 8, aqueous buffer, pH 8.0, read-out: Solubility of free base crystal form II) was 47 µg/mL (≈ 101 µM), the solubility at 2 h ([2]; water, 37 °C, water, H2O, read-out: Solubility of free base crystal form II) was 55 µg/mL (≈ 118 µM) and the “% Increase in total impurity” value ([3]; 50°C, 75%RH, 7 days) was less than 0.10%. The “% Maximum increase in single impurity” value ([3]; 50°C, 75%RH, 7 days) was less than 0.10%, the “% Increase in total impurity” value ([3]; 50°C, 75%RH, 14 days) was less than 0.10% and the “% Maximum increase in single impurity” value ([3]; 50°C, 75%RH, 14 days) was less than 0.10%. For the same compound, the “% Increase in total impurity” value ([3]; 60°C, 7 days) was less than 0.10%, the “% Maximum increase in single impurity” value ([3]; 60°C, 7 days) was less than 0.10% and the “% Increase in total impurity” value ([3]; 60°C, 14 days) was less than 0.10%. For the same compound, the “% Maximum increase in single impurity” value ([3]; 60°C, 14 days) was less than 0.10%, the “% Increase in total impurity” value [3, 5] was less than 0.10% and the “% Maximum increase in single impurity” value [3, 5] was less than 0.10%. For the same compound, the “% Increase in total impurity” value [3, 6] was less than 0.11%, the “% Maximum increase in single impurity” value [3, 6] was less than 0.10% and the Tmax ([4]; PO, read-out: tmax) was 2 h. The AUC(0-inf) ([4]; po) was 13600 ng·h/mL, the AUC(0-t) ([4]; po) was 11800 ng·h/mL and the Cmax ([4]; po) was 2520 ng/mL. It also gave a bioavailability ([4]; po) of 39.6%, a half-life ([4]; po) of 2.4 h and an MRT inf ([4]; po, PO, read-out: MRT 0-∞) of 4.3 h.
